Assay results reported in patent publication US10986838B2, “Herbicides” (SYNGENTA PARTICIPATIONS AG, priority 2016, dated 2021).

How the values were obtained:
Assay type in all cases: in vivo
[1] = test system: Abutilon theophrasti (ABUTH); test: Pre-emergence herbicidal activity (B1); details: Test 1b, 1000 g/ha, evaluated after 13 days, 5=total damage to plant, 0=no damage to plant
Description: (§1) B1 Pre-Emergence Herbicidal Activity Seeds of a variety of test species were sown in standard soil in pots: Triticum aestivium (TRZAW), Avena fatua (AVEFA), Alopecurus myosuroides (ALOMY), Echinochloa crus-galli (ECHCG), Lolium perenne (LOLPE), Zea Mays (ZEAMX), Abutilon theophrasti (ABUTH), Amaranthus retroflexus (AMARE) and Setaria faberi (SETFA). After cultivation for one day (pre-emergence) under controlled conditions in a glasshouse (at 24/16° C., day/night; 14 hours light; 65% humidity), the plants were sprayed with an aqueous spray solution derived from the formulation of the technical active ingredient in acetone/water (50:50) solution containing 0.5% Tween 20 (polyoxyethelyene sorbitan monolaurate, CAS RN 9005-64-5). The test plants were then grown in a glasshouse under controlled conditions (at 24/16° C., day/night; 14 hours light; 65% humidity) and watered twice daily. After 13 days, the test was evaluated (5=total damage to plant; 0=no damage to plant). Tables B1a and B1b Control of Weed Species by Compound of Formula (I) after Pre-Emergence Application

[2] = test system: Amaranthus retroflexus (AMARE); test: Pre-emergence herbicidal activity (B1); details: Test 1b, 1000 g/ha, evaluated after 13 days, 5=total damage to plant, 0=no damage to plant
Description: as §1

[3] = test system: Echinochloa crus-galli (ECHCG); test: Pre-emergence herbicidal activity (B1); details: Test 1b, 1000 g/ha, evaluated after 13 days, 5=total damage to plant, 0=no damage to plant
Description: as §1

Lolium perenne (LOLPE) [4] = test: Pre-emergence herbicidal activity (B1); details: Test 1b, 1000 g/ha, evaluated after 13 days, 5=total damage to plant, 0=no damage to plant
Description: as §1

Setaria faberi (SETFA) [5] = test: Pre-emergence herbicidal activity (B1); details: Test 1b, 1000 g/ha, evaluated after 13 days, 5=total damage to plant, 0=no damage to plant
Description: as §1

Zea Mays (ZEAMX) [6] = test: Pre-emergence herbicidal activity (B1); details: Test 1b, 1000 g/ha, evaluated after 13 days, 5=total damage to plant, 0=no damage to plant
Description: as §1

[7] = test system: Abutilon theophrasti (ABUTH); test: Post-emergence herbicidal activity (B2); details: Test B2b, 1000 g/ha, evaluated after 13 days, 5=total damage to plant, 0=no damage to plant
Description: (§2) B2 Post-Emergence Herbicidal Activity Seeds of a variety of test species were sown in standard soil in pots: Triticum aestivium (TRZAW), Avena fatua (AVEFA), Alopecurus myosuroides (ALOMY), Echinochloa crus-galli (ECHCG), Lolium perenne (LOLPE), Zea Mays (ZEAMX), Abutilon theophrasti (ABUTH), Amaranthus retroflexus (AMARE) and Setaria faberi (SETFA). After 8 days cultivation (post-emergence) under controlled conditions in a glasshouse (at 24/16° C., day/night; 14 hours light; 65% humidity), the plants were sprayed with an aqueous spray solution derived from the formulation of the technical active ingredient in acetone/water (50:50) solution containing 0.5% Tween 20 (polyoxyethelyene sorbitan monolaurate, CAS RN 9005-64-5). The test plants were then grown in a glasshouse under controlled conditions (at 24/16° C., day/night; 14 hours light; 65% humidity) and watered twice daily. After 13 days, the test was evaluated (5=total damage to plant; 0=no damage to plant). Tables B2a and B2b Control of Weed Species by Compound of Formula (I) after Post-Emergence Application

[8] = test system: Amaranthus retroflexus (AMARE); test: Post-emergence herbicidal activity (B2); details: Test B2b, 1000 g/ha, evaluated after 13 days, 5=total damage to plant, 0=no damage to plant
Description: as §2

[9] = test system: Echinochloa crus-galli (ECHCG); test: Post-emergence herbicidal activity (B2); details: Test B2b, 1000 g/ha, evaluated after 13 days, 5=total damage to plant, 0=no damage to plant
Description: as §2

Lolium perenne (LOLPE) [10] = test: Post-emergence herbicidal activity (B2); details: Test B2b, 1000 g/ha, evaluated after 13 days, 5=total damage to plant, 0=no damage to plant
Description: as §2

Setaria faberi (SETFA) [11] = test: Post-emergence herbicidal activity (B2); details: Test B2b, 1000 g/ha, evaluated after 13 days, 5=total damage to plant, 0=no damage to plant
Description: as §2

Zea Mays (ZEAMX) [12] = test: Post-emergence herbicidal activity (B2); details: Test B2b, 1000 g/ha, evaluated after 13 days, 5=total damage to plant, 0=no damage to plant
Description: as §2

Row | SMILES | ABUTH damage score [1] | AMARE damage score [2] | ECHCG damage score [3] | LOLPE damage score (Lolium perenne (LOLPE) [4]) | SETFA damage score (Setaria faberi (SETFA) [5]) | ZEAMX damage score (Zea Mays (ZEAMX) [6]) | ABUTH damage score [7] | AMARE damage score [8] | ECHCG damage score [9] | LOLPE damage score (Lolium perenne (LOLPE) [10]) | SETFA damage score (Setaria faberi (SETFA) [11]) | ZEAMX damage score (Zea Mays (ZEAMX) [12])
1 | Fc1cncc(-c2ccc(NCc3cccc(Cl)c3)c(C(F)(F)F)n2)c1 [Compound A18] | 0 | 0 | 2 | 0 | 4 | 4 | 0 | 0 | 3 | 2 | 5 | 5
2 | Fc1cncc(-c2ccc(Nc3ccccc3)c(C(F)(F)F)n2)c1 [Compound A32, 6-(5-fluoro-3-pyridyl)-N-phenyl-2-(trifluoromethyl)pyridin-3-amine] | 1 | 1 | 4 | 1 | 5 | 1 | 0 | 0 | 4 | 3 | 5 | 4
3 | COC(=O)CNc1ccc(-c2cncc(F)c2)nc1C(F)(F)F [Compound A22] | 0 | 3 | 4 | 2 | 4 | 5 | 2 | 3 | 5 | 4 | 5 | 5
4 | Fc1ccc(CNc2ccc(-c3cncc(F)c3)nc2C(F)(F)F)cc1 [Compound A31] | 1 | 1 | 4 | 2 | 5 | 4 | 0 | 1 | 4 | 3 | 5 | 5
5 | N#Cc1nc(-c2cncc(F)c2)ccc1N [Compound A9, 3-amino-6-(5-fluoro-3-pyridyl)pyridine-2-carbonitrile] | 1 | 1 | 4 | 0 | 4 | 2 | 1 | 1 | 4 | 1 | 4 | 4
6 | CNc1ccc(-c2cncnc2)nc1C(F)(F)F [Compound A34] | 0 | 1 | 4 | 3 | 4 | 4 | 1 | 2 | 5 | 3 | 5 | 5
7 | Nc1ccc(-c2cncnc2)nc1C(F)(F)F [Compound A35, 6-pyrimidin-5-yl-2-(trifluoromethyl)pyridin-3-amine] | 0 | 1 | 3 | 2 | 4 | 5 | 1 | 2 | 4 | 4 | 5 | 5
8 | Fc1cncc(-c2ccc(NCc3ccc(F)cc3F)c(C(F)(F)F)n2)c1 [Compound A28] | 0 | 0 | 2 | 0 | 4 | 2 | 0 | 1 | 3 | 2 | 5 | 5
9 | COC(=O)C(C)Nc1ccc(-c2cncc(F)c2)nc1C(F)(F)F (stereo not drawn) [Compound A19] | 0 | 1 | 3 | 2 | 4 | 5 | 1 | 2 | 4 | 3 | 5 | 5
10 | Fc1cncc(-c2ccc(NCc3ccc(Cl)cc3)c(C(F)(F)F)n2)c1 [Compound A24] | 0 | 0 | 2 | 1 | 4 | 3 | 0 | 0 | 3 | 2 | 5 | 5
11 | Cc1nc(-c2cccnc2)ccc1N [Compound A36] | 1 | 1 | 0 | 0 | 1 | 0 | 0 | 1 | 1 | 1 | 2 | 2
12 | Fc1cncc(-c2ccc(NCc3ccccc3)c(C(F)(F)F)n2)c1 [Compound A21] | 0 | 1 | 3 | 2 | 5 | 3 | 0 | 1 | 1 | 1 | 5 | 5
